What was measured:
[1] = test system: BRO-strain human malignant melanomas; assay: MR imaging of human malignant melanoma xenografts; assay type: in vivo, human tumor in Swiss nude mice
Experimental: The strong paramagnetic metal ion, gadolinium (Gd^+3), was chelated stoichiometrically to DTPA-Dextran 70 polymer, whose preparation is described in Example 1, paragraph 2 (improved formulation). Swiss nude mice were inoculated with BRO-strain human malignant melanomas, and these were allowed to grow to a 1-1.5 cm diameter. Moderately T1-weighted MR imaging (TR=500 msec, TE=40 msec) was performed in a standard Diasonics™ medical imager and a 30-cm RF head coil, before and after intravenous injection of equivalent doses of Gd-DTPA-Dextran-70 (0.03 mmol Gd/kg) or Gd-DTPA (0.1 mmol/kg) contrast agent. […] It will also be recognized that much lower doses of the stronger superparamagnetics (including doses below about 0.01 mmol/kg, versus 0.1 mmol/kg for Gd-DTPA) can be used to obtain effective MRI contrast enhancement; and that much faster, more heavily T1-weighted pulse sequences can be implemented in the presence of intramolecularly superparamagnetic polyatomic complex-carrier polymer conjugates or paired-ion complexes.

[2] = Blood and total body clearance; assay type: in vivo
[3] = small-molecular contrast agents; cited from earlier work
[4] = usually; cited from earlier work
tumor interstitium = conditions: in vivo; cited from earlier work
VX2 carcinomas = assay: Histochemical platinum stain of tumor tissues after intraarterial perfusion; assay type: in vivo, rabbit; conditions: selective arterial perfusion
Experimental: At 5 to 15 minutes postinjection, the animals were sacrificed, their lungs removed and fixed with intratracheal buffered formalin, tissue sections cut at 8 microns thickness, and the sections stained using a newly devised method for platinum which comprises a microwave-augmented iron-type stain (60° C.×2 minute×3 cycles) using a 1:1 mixture of 2% ferriferrocyanide reagent and 4% HCl. […] To those skilled in the art, additional evidence for selective lung localization, was obtained by injecting intravenously, analogous (subembolizing) heparincoated small microparticles containing encapsulated amphotericin B, into identical mice, homogenizing the lungs, and documenting an 8-fold increment in drug levels over native amphotericin B (deoxycholate formulation, Fungizone; Squibb) recovered at 1 to 3 hours postinjection.
(§1) Additional documentation for maintenance of the cisplatin-carrier paired-ion complex in vivo was obtained as follows. […] Animals were sacrificed at 15 minutes, and the tumors and organs were homogenized extracted and analyzed by atomic absorption for tissue platinum concentrations, as shown in Table 1.
Additionally, histochemical platinum stains were performed on the tumor tissues, as described in Example 7.
Microinhomogeneities of tissue heating represent a major problem in hyperthermia treatment of tumors. […]

malignant breast tumor = conditions: by 30 minutes postcontrast; cited from earlier work
[5] = test system: VX2 carcinomas of the right hind limb; assay: Tissue platinum content by atomic absorption after selective intraarterial perfusion; assay type: in vivo; conditions: 15 mg cisplatin per rabbit intraarterially over 15 minutes
Experimental: as §1

CBA/J mice = assay: Tetany / toxicity following intravenous injection; assay type: in vivo; conditions: 10 mg/25 gm body weight
[6] = Complexation of exogenously added calcium ions (ionized calcium analyzer); assay type: binding
red cells = conditions: cited from earlier work

## gadolinium diethylenetriamine pentaacetic acid [Gd-DTPA]
[1]; by one hour, 0.1 mmol/kg
  Fading of tumor enhancement: completely faded
[1]; intravenous, Gd-DTPA-dextran 0.03 mmol Gd/kg, Gd-DTPA 0.1 mmol/kg
  Time to begin to optimally enhance the tumors: 10 min
[2]
  Blood clearance t1/2: 20 min
[3]
  Initial biodistribution, share of total body water: ca. 35%
[4]
  Retained fraction: less than 0.5%
Tumor interstitium
  Retention in tumor interstitium: 10 to 45 min

## N.N.[Cl][Pt][Cl] [cisplatin, cis-dichlorodiamine platinum]
VX2 carcinomas
  Intracellular tumor-cell platinum staining: aggregated staining was absent

## gadolinium diethylenetriamine pentaacetic acid dimeglumine [Gd-DTPA dimeglumine]
Malignant breast tumor
  Tumor fading, in words: almost complete fading (tumor clearance)

## Cisplatin-DTPA-Dextran (70,000 MW) [DTPA-dextran cisplatin]
[5]
  Platinum content, Kidney: 2.92 ng/mg of tissue, wet weight
  Platinum content, Liver: 3.47 ng/mg of tissue, wet weight
[5]; Ipsilateral
  Platinum content, Blood: 2.14 ng/mg of tissue, wet weight
  Platinum content, Muscle: 0.29 ng/mg of tissue, wet weight
  Platinum content, Tumor: 10.81 ng/mg of tissue, wet weight
CBA/J mice
  Tetany / toxicity following intravenous injection: elimination of tetany
[6]
  Complexation of exogenously added calcium ions by the DTPA groups: reduction in the complexation of exogenously added calcium ions

## [O]=[51Cr](=[O])([O-])[O-] [^51 Chromium, ^51 CrO4^-2]
Red cells
  Average rate of elution from red cells: 0.93 % per day

— US5213788A, “Physically and chemically stabilized polyatomic clusters for magnetic resonance image and spectral enhancement” (priority 1991, dated 1993)
